Experimental findings from patent US20250346576A1, “KCNT1 INHIBITORS COMPRISING A PYRAZOLE CORE AND METHODS OF USE” (PRAXIS PRECISION MEDICINES, INC., priority 2022, published 2025) are described below.

Each structure is given as a SMILES string. pIC50: −log10 of the molar value.

For this assay, the target named is T1, KCNT1 (KNa1.1, Slack) (Homo sapiens, UniProt Q5JUK3).
T1 construct: expressed in transfected cells; host or cells: HEK-TREX (tetracycline inducible cell line)
T1 sequence (Q5JUK3 1-1230): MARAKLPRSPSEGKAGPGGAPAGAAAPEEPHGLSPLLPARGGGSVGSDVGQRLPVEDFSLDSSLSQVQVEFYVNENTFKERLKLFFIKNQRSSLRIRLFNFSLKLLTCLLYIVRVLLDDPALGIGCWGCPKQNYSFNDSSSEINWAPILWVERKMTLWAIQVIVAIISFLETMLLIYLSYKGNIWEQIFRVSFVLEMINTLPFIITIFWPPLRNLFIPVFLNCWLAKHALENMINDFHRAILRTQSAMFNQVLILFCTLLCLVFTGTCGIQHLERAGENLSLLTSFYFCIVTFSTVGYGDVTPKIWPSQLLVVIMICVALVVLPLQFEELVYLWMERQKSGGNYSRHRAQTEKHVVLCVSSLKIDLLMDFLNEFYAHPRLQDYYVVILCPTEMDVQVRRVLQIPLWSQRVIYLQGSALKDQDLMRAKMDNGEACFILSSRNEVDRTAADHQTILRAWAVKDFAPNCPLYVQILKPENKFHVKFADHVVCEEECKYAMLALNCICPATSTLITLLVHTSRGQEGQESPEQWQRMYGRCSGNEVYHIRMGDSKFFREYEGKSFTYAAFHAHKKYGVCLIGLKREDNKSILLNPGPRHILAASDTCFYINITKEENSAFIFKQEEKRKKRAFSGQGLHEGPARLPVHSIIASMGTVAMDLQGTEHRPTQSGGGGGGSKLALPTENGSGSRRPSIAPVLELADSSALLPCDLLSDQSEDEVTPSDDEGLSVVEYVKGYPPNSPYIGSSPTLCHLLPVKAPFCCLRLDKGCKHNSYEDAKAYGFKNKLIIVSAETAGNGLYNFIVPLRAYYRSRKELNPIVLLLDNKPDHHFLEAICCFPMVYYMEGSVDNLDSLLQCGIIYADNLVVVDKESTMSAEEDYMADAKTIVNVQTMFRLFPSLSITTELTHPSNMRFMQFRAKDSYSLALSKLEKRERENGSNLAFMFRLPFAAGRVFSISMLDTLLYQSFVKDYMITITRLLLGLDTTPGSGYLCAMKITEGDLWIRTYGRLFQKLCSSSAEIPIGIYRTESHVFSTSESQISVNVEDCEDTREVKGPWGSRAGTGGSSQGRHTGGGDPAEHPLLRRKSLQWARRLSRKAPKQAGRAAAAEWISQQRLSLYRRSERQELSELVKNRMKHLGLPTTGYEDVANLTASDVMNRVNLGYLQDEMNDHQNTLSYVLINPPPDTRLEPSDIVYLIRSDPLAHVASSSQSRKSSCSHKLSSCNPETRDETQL
The experiment in a line: KCNT1 patch clamp assay (SyncroPatch 384PE, tetracycline inducible HEK-TREX cell line). The format is cell-based. To be noted: WT KCNT1, HEK-TREX cells, perforated patch, step from -80 mV to 0 mV, room temperature; read-out: WT (KCNT1 inhibition IC50). The procedure:
Inhibition of KCNT1 (KNa1.1, Slack) was evaluated using a tetracycline inducible cell line (HEK-TREX). Currents were recorded using the SyncroPatch 384PE automated, patch clamp system. Pulse generation and data collection were performed with PatchController384 V1.3.0 and DataController384 V1.2.1 (Nanion Technologies). The access resistance and apparent membrane capacitance were estimated using built-in protocols. Current was recorded in perforated patch mode (10 μM escin) from a population of cells. The cells were lifted, triturated, and resuspended at 800,000 cells/ml. The cells were allowed to recover in the cell hotel prior to experimentation. Currents were recorded at room temperature. The external solution contained the following (in mM): NaCl 105, NMDG 40, KCl 4, MgCl2 1, CaCl2 5, and HEPES 10 (pH=7.4, Osmolarity ˜300 mOsm). The extracellular solution was used as the wash, reference, and compound delivery solution. The internal solution contained the following (in mM): NaCl 70, KF 70, KCl 10, EGTA 5, HEPES 5, and Escin 0.01 (pH=7.2, Osmolarity ˜295 mOsm). Escin is made at a 5 mM stock in water, aliquoted, and stored at −20° C. The compound plate was created at 2× concentrated in the extracellular solution. The compound was diluted to 1:2 when added to the recording well. The amount of DMSO in the extracellular solution was held constant at the level used for the highest tested concentration. A holding potential of −80 mV with a 100 ms step to 0 mV was used. Mean current was measured during the step to 0 mV. […] The average mean current from 3 sweeps was calculated and the percent inhibition of each compound was calculated. The percent inhibition as a function of the compound concentration was fit with a Hill equation to derive IC50, slope, minimum parameters, and maximum parameters. If KCNT1 inhibition was less than 50% at the highest tested concentration or if an IC50 could not be calculated, then a percent inhibition was reported in place of the IC50.
In this table, “A” indicates IC50 of less than or equal to 1 μM; “B” indicates inhibition of between 1 μM to 20 μM; and “C” indicates inhibition of greater than or equal to 20 μM.
Turning to `CC(NC(=O)c1cc(C(F)(F)F)nn1C)c1cc(-c2ccnc(C(F)(F)F)c2)nn1C` (single isomer, unassigned) [Compound 1001], the negative-log IC50 (pIC50) is ≥ 6.00. The figure for `CC(NC(=O)c1cc(C(F)(F)F)nn1C)c1cc(-c2ccncc2)nn1C` (single isomer, unassigned) [Compound 1003] is ≤ 4.70; for `CCn1nc(-c2ccnc(C(F)(F)F)c2)cc1C(C)NC(=O)c1cc(C(F)(F)F)nn1C` (single isomer, unassigned) [Compound 1004] it is ≥ 6.00. With `Cc1cc(-c2cc(C(C)NC(=O)c3cc(C(F)(F)F)nn3C)n(C)n2)ccn1` (single isomer, unassigned) [Compound 1005] the figure was 4.70 to 6.00; with `Cc1cc(-c2cc(C(C)NC(=O)c3cc(C(F)(F)F)nn3C)n(C)n2)ccn1` (single isomer, unassigned) [Compound 1006], 4.70 to 6.00. The figure for `CCn1nc(-c2ccnc(C(F)(F)F)c2)cc1C(C)NC(=O)c1cc(C(F)(F)F)nn1C` (single isomer, unassigned) [Compound 1007] is ≥ 6.00; for `CC(NC(=O)c1cc(C(F)(F)F)nn1C)c1cc(-c2ccncc2)nn1C` (single isomer, unassigned) [Compound 1008] it is 4.70 to 6.00; for `CC(NC(=O)c1cc(C(F)(F)F)nn1C)c1cc(-c2ccccc2)nn1C` (single isomer, unassigned) [Compound 1010] it is 4.70 to 6.00. For the molecule `CC(NC(=O)c1cc(C(F)(F)F)nn1C)c1cc(-c2ccccc2)nn1C` (single isomer, unassigned) [Compound 1011], the pIC50 was 4.70 to 6.00. For `CC(NC(=O)c1cc(C(F)(F)F)nn1C)c1cc(C(F)(F)F)nn1C` (single isomer, unassigned) [Compound 1014], the pIC50 was 4.70 to 6.00.

`CC(NC(=O)c1cc(C(F)(F)F)nn1C)c1cc(C(F)(F)F)nn1C` (single isomer, unassigned) [Compound 1015]: the pIC50 was 4.70 to 6.00.

As to `CC(NC(=O)c1cc(C(F)(F)F)nn1C)c1cc(-c2ccc(CO)nc2)nn1C` (stereo not shown) [Compound 1009], the pIC50 is ≤ 4.70. In the case of `Cc1ncc(-c2cc(C(C)NC(=O)c3cc(C(F)(F)F)nn3C)n(C)n2)cn1` (stereo not shown) [Compound 1012], the pIC50 was ≤ 4.70. With `COc1ccc(-c2cc(C(C)NC(=O)c3cc(C(F)(F)F)nn3C)n(C)n2)cn1` (stereo not shown) [Compound 1013] the figure was ≥ 6.00. The figure for `CC(NC(=O)c1cc(C(F)(F)F)nn1C)c1cc(-c2ccc(C#N)nc2)nn1C` (stereo not shown) [Compound 1016] is ≤ 4.70; for `Cc1cccc(-c2cc(C(C)NC(=O)c3cc(C(F)(F)F)nn3C)n(C)n2)n1` (stereo not shown) [Compound 1017] it is 4.70 to 6.00; for `CC(NC(=O)c1cc(C(F)(F)F)nn1C)c1cc(-c2ccc(C(F)(F)F)nc2)nn1C` (stereo not shown) [Compound 1018] it is 4.70 to 6.00. The figure for `Cn1nc(-c2ccnc(C(F)(F)F)c2)cc1CNC(=O)c1cc(C(F)(F)F)nn1C` [Compound 1019] is ≥ 6.00; for `CC(NC(=O)c1cc(C(F)(F)F)nn1C)c1cc(-c2ccnc(C(F)(F)F)c2)nn1C` (stereo not shown) [Compound 1020] it is ≥ 6.00. For the molecule `CC(NC(=O)c1cc(C(F)(F)F)nn1C)c1cc(-c2ccc(C#N)cc2)nn1C` (stereo not shown) [Compound 1021], the pIC50 is 4.70 to 6.00. With `CC(NC(=O)c1cc(C(F)(F)F)nn1C)c1cc(-c2ccc(C(N)=O)cc2)nn1C` (stereo not shown) [Compound 1022] the figure was ≤ 4.70; with `CC(NC(=O)c1cc(C(F)(F)F)nn1C)c1cc(N2CCCCC2)nn1C` (stereo not shown) [Compound 1023], 4.70 to 6.00. Take `CC(NC(=O)c1cc(C(F)(F)F)nn1C)c1cc(Nc2ccccc2)nn1C` (stereo not shown) [Compound 1024]: the pIC50 is 4.70 to 6.00. Turning to `CC(NC(=O)c1cc(C(F)(F)F)nn1C)c1cc(N(C)c2ccccc2)nn1C` (stereo not shown) [Compound 1025], the pIC50 is 4.70 to 6.00. With `CC(NC(=O)c1cc(C(F)(F)F)nn1C)c1cc(NC2CCCC2)nn1C` (stereo not shown) [Compound 1026] the figure was ≤ 4.70; with `CC(NC(=O)c1cc(C(F)(F)F)nn1C)c1cc(N(C)C2CCCC2)nn1C` (stereo not shown) [Compound 1027], 4.70 to 6.00; with `CC(NC(=O)c1cc(C(F)(F)F)nn1C)c1cc(Cc2ccccc2)nn1C` (stereo not shown) [Compound 1028], 4.70 to 6.00. Consider `CCn1nc(-c2ccnc(C(F)(F)F)c2)cc1CNC(=O)c1cc(C(F)(F)F)nn1C` [Compound 1029], for which the pIC50 was ≥ 6.00. The figure for `Cc1c(-c2ccnc(C(F)(F)F)c2)nn(C)c1CNC(=O)c1cc(C(F)(F)F)nn1C` [Compound 1030] is ≥ 6.00. The figure for `CC(C)Oc1cc(C(C)NC(=O)c2cc(C(F)(F)F)nn2C)n(C)n1` (stereo not shown) [Compound 1031] is ≤ 4.70; for `CC(NC(=O)c1cc(C(F)(F)F)nn1C)c1cc(Oc2ccccc2)nn1C` (stereo not shown) [Compound 1032] it is 4.70 to 6.00; for `Cn1nc(-c2ccnc(C(F)(F)F)c2)cc1CNC(=O)c1cc(C(F)F)nn1C` [Compound 1033] it is ≥ 6.00. The figure for `Cn1nc(C(F)F)cc1C(=O)NC1(c2cc(-c3ccnc(C(F)(F)F)c3)nn2C)CC1` [Compound 1034] is ≥ 6.00. Regarding `Cn1nc(C(F)(F)F)cc1C(=O)NC1(c2cc(-c3ccnc(C(F)(F)F)c3)nn2C)CC1` [Compound 1035], the pIC50 is ≥ 6.00. In the case of `COc1cc(-c2cc(CNC(=O)c3cc(C(F)(F)F)nn3C)n(C)n2)ccn1` [Compound 1036], the pIC50 was ≥ 6.00. Regarding `CCOc1cc(-c2cc(CNC(=O)c3cc(C(F)(F)F)nn3C)n(C)n2)ccn1` [Compound 1037], the negative-log IC50 (pIC50) is ≥ 6.00.

On to `Cn1nc(-c2ccnc(C3CC3)c2)cc1CNC(=O)c1cc(C(F)(F)F)nn1C` [Compound 1038], for which the pIC50 is ≥ 6.00. The figure for `CC(C)c1cc(C(=O)NCc2cc(-c3ccnc(C(F)(F)F)c3)nn2C)n(C)n1` [Compound 1039] is ≥ 6.00; for `Cn1nc(-c2ccnc(C(F)(F)F)c2)cc1CNC(=O)c1ccccc1` [Compound 1040] it is ≥ 6.00; for `Cc1cc(-c2cc(CNC(=O)c3cc(C(F)(F)F)nn3C)n(C)n2)c(F)cn1` [Compound 1041] it is ≥ 6.00.
